Test results published in patent EP4775582A1, “MACROCYCLIC COMPOUND AND ANTIBODY-DRUG CONJUGATE THEREOF” (Genfleet Therapeutics (Shanghai) Inc., priority 2023, dated 2025).
Values after ≈ are worked out from the molar mass of the structure shown. Read-outs that look alike come from different tables or passages of the source.

Columns and labels:
[1] = Solubility experiment (HPLC, external standard); format: physicochemical; conditions: 37 °C, 24 h; for solubility at 24 h: pH 7.4, pH 7.4 medium
Description: This experiment was intended to determine the solubility of the compounds in media at different pH values. The materials used in the experiment included: a pH 1.2 medium, a pH 4.5 medium, a pH 7.4 medium, and a diluent (acetonitrile/water = 50/50). 1. The preparation methods for media are as follows:
One centrifuge tube (containing about 2 mg of the test sample) was taken, 1 mL of DMSO was added to completely dissolve the test sample, and the mixture was marked as stock-1. 0.2 mL of stock-1 was transferred into a 10 mL volumetric flask, and then the 50:50 (acetonitrile/water) solution was added to bring the volume to the mark, so as to give a control solution.
Additionally, centrifuge tubes each containing about 1 mg of the test sample were taken, 1 mL of the corresponding medium solution was then added, and the tubes were shaken on a 37 °C water bath shaker for 24 h. After centrifugation for 3 times (centrifugation time: 10 min, rotation speed: 12000 rpm), 0.2 mL of the supernatants were taken, 0.8 mL of the diluent (acetonitrile/water = 50/50) was added to each tube, and the mixtures were vortexed and mixed well to give solubility samples.
The solubility samples described above and the control solution were sequentially analyzed by high performance liquid chromatography. The chromatographic conditions are as follows:
The actual concentration of the compound in each solubility sample was calculated according to an external standard method. Concentration (μg/mL) = (ASample × CControl × DSample)/(AControl)∗1000; [formula] Asample: the peak area of the target peak in the sample solution; Ccontrol: the concentration (mg/mL) of the control solution; Dsample: the dilution factor of the sample solution; Acontrol: the peak area of the target peak in the control solution.

KRAS WT-cRAF = KRAS WT-cRAF (Homo sapiens, UniProt P01116+P62937); assay: Assay for binding of KRAS to cRAF (HTRF, with Cyclophilin A), KRAS WT
Sequence of KRAS WT-cRAF (P01116 1-188 isoform P01116-2): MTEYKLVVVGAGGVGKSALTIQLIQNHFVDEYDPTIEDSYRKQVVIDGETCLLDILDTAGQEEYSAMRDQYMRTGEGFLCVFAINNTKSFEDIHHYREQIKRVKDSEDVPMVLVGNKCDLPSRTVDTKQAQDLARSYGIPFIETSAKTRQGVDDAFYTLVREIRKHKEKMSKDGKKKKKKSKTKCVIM
Sequence of KRAS WT-cRAF (P62937 whole entry): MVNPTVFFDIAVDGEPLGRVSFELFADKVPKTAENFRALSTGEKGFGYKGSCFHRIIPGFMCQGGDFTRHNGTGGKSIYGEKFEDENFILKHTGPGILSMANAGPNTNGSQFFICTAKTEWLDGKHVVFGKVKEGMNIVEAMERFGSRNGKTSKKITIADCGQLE
Description: (§3) The plate was centrifuged at 1000 rpm for 1 min and then incubated in the thermostatic incubator at 20 °C for 30 min. […] The plate was centrifuged at 1000 rpm for 1 min and then incubated in the thermostatic incubator at 20 °C for 60 min. […] The working solution was added to the aforementioned assay plate at 5 µL/well. The plate was centrifuged at 1000 rpm for 1 min and then incubated in the thermostatic incubator at 20 °C for 60 min.

KRAS G12V-cRAF = KRAS G12V-cRAF (Homo sapiens, UniProt P01116+P62937, G12V); assay: Assay for binding of KRAS to cRAF (HTRF, with Cyclophilin A), KRAS G12V
Sequence of KRAS G12V-cRAF (P01116 1-188 isoform P01116-2 G12V): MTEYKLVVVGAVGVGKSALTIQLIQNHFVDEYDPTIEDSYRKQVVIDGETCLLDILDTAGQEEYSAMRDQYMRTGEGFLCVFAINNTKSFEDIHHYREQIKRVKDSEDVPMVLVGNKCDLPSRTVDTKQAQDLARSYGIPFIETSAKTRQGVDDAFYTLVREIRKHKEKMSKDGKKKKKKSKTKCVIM
Sequence of KRAS G12V-cRAF (P62937 whole entry): as the sequence (P62937 whole entry) above
Description: as §3

H441 p-ERK = assay: Cell p-ERK assay (HTRF), NCI-H441 cells; format: cell-based, human; conditions: Homo sapiens; NCI-H441 cells (KRAS G12V), 3 h incubation
In short: (§1)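 Phospho-ERK (T202/Y204) was measured by HTRF in lysates after 3 h compound treatment at 37 °C. Cells had been plated the previous day at 20000 per well for NCI-H441 and 10000 per well for AsPC-1. Four-parameter dose-response fitting of % inhibition gave IC50 values.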

AsPC-1 p-ERK = assay: Cell p-ERK assay (HTRF), AsPC-1 cells; format: cell-based, human; conditions: Homo sapiens
In short: as §1

NCI-H441 cells = assay: 3D cell proliferation assay (CellTiter Glo-3D), NCI-H441; format: cell-based, human; conditions: Homo sapiens, 120 h, NCI-H441 cells (KRAS G12V), 2% FBS, 5 days, read-out: H441 AP IC50
In short: (§2)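 IC50 values come from four-parameter fits of inhibition rate against log compound concentration, using CellTiter-Glo luminescence read after 5 days' exposure. AsPC-1 and NCI-H441 were plated at 800 cells per well in low-serum (2% FBS) medium. Compound was dosed the day after seeding, with incubation at 37 °C, 5% CO2.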

AsPC-1 cells = assay: 3D cell proliferation assay (CellTiter Glo-3D), AsPC-1; format: cell-based, human; conditions: Homo sapiens, ASPC1, 120 h
In short: as §2

[2] = KRAS WT-cRAF binding assay(nM), GPPNP-KRAS WT, IC50 values
[3] = KRAS G12V-cRAF binding assay(nM), GPPNP-KRAS G12V, IC50 values
[4] = ASPC1, 3 h, read-out: AsPC-1 p-ERK IC50(nM)
[5] = read-out: KRAS WT-cRAF binding assay, GPPNP-KRAS WT, IC50 values
[6] = read-out: KRAS G12V-cRAF binding assay, GPPNP-KRAS G12V, IC50 values

Row | SMILES | solubility at 24 h ([1]; pH 7.4 medium) [µg/mL] | IC50 (KRAS WT-cRAF; [2]) [nM] | IC50 (KRAS G12V-cRAF; [3]) [nM] | IC50 (H441 p-ERK) [nM] | IC50 (AsPC-1 p-ERK; [4]) [nM] | IC50 (NCI-H441 cells) [nM] | IC50 (AsPC-1 cells; read-out: AsPC-1 AP IC50(nM)) [nM] | solubility at 24 h ([1]; ph 7.4 medium) [µg/mL] | also measured
1 | COCCn1c(-c2cc(C#CCN3CCN(C(=O)CO)CC3)c[n+]([O-])c2C(C)OC)c2c3cc(ccc31)-c1csc(n1)CC(NC(=O)C1C3COCC31)C(=O)N1CCCC(N1)C(=O)OCC(C)(C)C2 (atropisomer, axis not shown; (Ra)) [Compound Z38-1, (Ra)-3-((6^3S,4S,Z)-4-((1R,5S,6r)-3-oxabicyclo[3.1.0]hexane-6-carboxamido)-1^1-(2-methoxyethyl)-10,10-dimethyl-5,7-dioxo-6^1,6^2,6^3,6^4,6^5,6^6-hexahydro-1^1H-8-oxa-2(4,2)-thiazola-1(5,3)-indola-6(1,3)-pyridazinacycloundecaphane-1^2-yl)-5-(3-(4-(2-hydroxyacetyl)piperazin-1-yl)prop-1-yn-1-yl)-2-((S)-1-methoxyethyl)pyridine-1-oxide] | 97 (≈ 100 µM) | 69.6 | 37.7 |  |  |  |  |  | 
2 | CO[C@@H](C)c1ncc(C#CCN2CCS(=O)(=O)CC2)cc1-c1c2c3cc(ccc3n1CCCO)-c1csc(n1)C[C@H](NC(=O)[C@H]1[C@@H]3COC[C@@H]31)C(=O)N1CCC[C@H](N1)C(=O)OCC(C)(C)C2 (atropisomer, axis not shown; (Ra)) [Compound Z24-1, (1R,5S,6r)-N-((6^3S,4S,Z)-1^2-(5-(3-(1,1-dioxidothiomorpholino)prop-1-yn-1-yl)-(Ra)-2-((S)-1-methoxyethyl)-pyridin-3-yl)-1^1-(3-hydroxypropyl)-10,10-dimethyl-5,7-dioxo-6^1,6^2,6^3,6^4,6^5,6^6-hexahydro-1^1H-8-oxa-2(4,2)-thiazola-1(5,3)-indola-6(1,3)-pyridazinacycloundecaphane-4-yl)-3-oxabicyclo[3.1.0]hexane-6-carboxamide] |  |  |  | 3.76 | 2.64 | 1.77 | 1.73 | 12.3 (≈ 13.1 µM) | 
3 | COCCn1c(-c2cc(C#CCN3CCN(C(=O)CO)CC3)c[n+]([O-])c2[C@H](C)OC)c2c3cc(ccc31)-c1csc(n1)C[C@H](NC(=O)[C@H]1[C@H](C)[C@@H]1C)C(=O)N1CCC[C@H](N1)C(=O)OCC(C)(C)C2 (atropisomer, axis not shown; (Ra)) [Compound Z54, (Ra)-3-((6^3S,4S,Z)-4-((1r,2R,3S)-2,3-dimethylcyclopropane-1-carboxamido)-1^1-(2-methoxyethyl)-10,10-dimethyl-5,7-dioxo-6^1,6^2,6^3,6^4,6^5,6^6-hexahydro-11H-8-oxa-2(4,2)-thiazola-1(5,3)-indola-6(1,3)-pyridazinacyclodecaphane-1^2-yl)-5-(3-(4-(2-hydroxyacetyl)piperazin-1-yl)prop-1-yn-1-yl)-2-((S)-1-methoxyethyl)pyridine 1-oxide] |  |  |  |  |  | 4.7 |  | 36.2 (≈ 38 µM) | IC50 (AsPC-1 cells; AsPC-1 cells (KRAS G12D), 3D, 2% FBS, 5 days, read-out: AsPC-1 AP IC50): 14 nM; IC50 (KRAS WT-cRAF; [5]): 74.8 nM; IC50 (KRAS G12V-cRAF; [6]): 12.1 nM
4 | COCCn1c(-c2cc(C#CCN3CCN(C(=O)CO)CC3)cnc2[C@H](C)OC)c2c3cc(ccc31)-c1csc(n1)C[C@H](NC(=O)[C@H]1[C@H](C)[C@@H]1C)C(=O)N1CCC[C@H](N1)C(=O)OCC(C)(C)C2 (atropisomer, axis not shown; (Ra)) [Compound Z63-1, (2R,3S)-N-((6^3S,4S,Z)-1^2-(5-(3-(4-(2-hydroxyacetyl)piperazin-1-yl)prop-1-yn-1-yl)-(Ra)-2-((S)-1-methoxyethyl)pyridin-3-yl)-1'-(2-methoxyethyl)-10,10-dimethyl-5,7-dioxo-6^1,6^2,6^3,6^4,6^5,6^6-hexahydro-1^1H-8-oxa-2(4,2)-thiazola-1(5,3)-indola-6(1,3)-pyridazinacycloundecaphane-4-yl)-2,3-dimethylcyclopropane-1-carboxamide] |  |  |  | 0.55 | 0.61 | 0.32 | 0.36 |  | Solubility at pH 7.4 (µg/mL) ([1]; pH 7.4 medium, 1440 min): 7.53 µg/mL

Further lines, with some results ahead:

Row | solubility at 24 h ([1]; pH 7.4 medium) [µg/mL] | IC50 (KRAS WT-cRAF; [2]) [nM] | IC50 (KRAS G12V-cRAF; [3]) [nM] | IC50 (H441 p-ERK) [nM] | IC50 (AsPC-1 p-ERK; [4]) [nM] | IC50 (NCI-H441 cells) [nM] | IC50 (AsPC-1 cells; read-out: AsPC-1 AP IC50(nM)) [nM] | solubility at 24 h ([1]; ph 7.4 medium) [µg/mL] | SMILES | also measured
5 | 22.4 (≈ 24.6 µM) | 31 | 16.5 |  |  |  |  |  | CCn1c(-c2cc(C#CCN3CCS(=O)(=O)CC3)cnc2C(C)OC)c2c3cc(ccc31)-c1csc(n1)CC(NC(=O)C1C3CNCC31)C(=O)N1CCCC(N1)C(=O)OCC(C)(C)C2 (atropisomer, axis not shown; (Ra)) [Compound Z18, (1R,5S,6r)-N-((6^3S,4S,Z)-(Ra)-1^2-(5-(3-(1,1-dioxidothiomorpholino)prop-1-yn-1-yl)-2-((S)-1-methoxyethyl)pyridin-3-yl)-1^1-ethyl-10,10-dimethyl-5,7-dioxo-6^1,6^2,6^3,6^4,6^5,6^6-hexahydro-1^1H-8-oxa-2(4,2)-thiazola-1(5,3)-indola-6(1,3)-pyridazinacycloundecaphane-4-yl)-3-azabicyclo[3.1.0]hexane-6-carboxamide] | 
6 |  |  |  | 0.64 | 0.51 | 0.44 | 0.78 | 20.8 (≈ 22.8 µM) | CCn1c(-c2cc(C#CCN3CCS(=N)(=O)CC3)cnc2[C@H](C)OC)c2c3cc(ccc31)-c1csc(n1)C[C@H](NC(=O)[C@H]1[C@@H]3COC[C@@H]31)C(=O)N1CCC[C@H](N1)C(=O)OCC(C)(C)C2 (atropisomer, axis not shown; (Ra)) [Compound Z27] | 
7 |  |  |  | 1.27 | 1.64 |  |  | 363 (≈ 401 µM) | CCn1c(-c2cc(C#CCN3CCN(C(=O)CN)CC3)cnc2[C@H](C)OC)c2c3cc(ccc31)-c1coc(n1)C[C@H](NC(=O)[C@H]1[C@@H]3COC[C@@H]31)C(=O)N1CCC[C@H](N1)C(=O)OCC(C)(C)C2 (atropisomer, axis not shown; (Ra)) [Compound Z167, (1R,5S,6r)-N-((6^3S,4S,Z)-1^2-(5-(3-(4-glycylpiperazin-1-yl)prop-1-yn-1-yl)-(Ra)-2-((S)-1-methoxyethyl)pyridin-3-yl)-1^1-ethyl-10,10-dimethyl-5,7-dioxo-6^1,6^2,6^3,6^4,6^5,6^6-hexahydro-1^1H-8-oxa-2(4,2)-oxazola-1(5,3)-indola-6(1,3)-pyridazinacycloundecaphane-4-yl)-3-oxabicyclo[3.1.0]hexane-6-carboxamide] | IC50 (KRAS WT-cRAF; [5]): 40.9 nM; IC50 (KRAS G12V-cRAF; [6]): 13.9 nM
8 | 101 (≈ 113 µM) | 62 | 8.7 | 8.12 |  |  |  |  | CCn1c(-c2cc(C#CCN3CCS(=O)(=O)CC3)cnc2C(C)NC)c2c3cc(ccc31)-c1csc(n1)CC(NC(=O)C1C(C)C1C)C(=O)N1CCCC(N1)C(=O)OCC(C)(C)C2 (atropisomer, axis not shown; (Ra)) [Compound Z67, (1r,2R,3S)-N-((6^3S,4S,Z)-(Ra)-1^2-(5-(3-(1,1-dioxidothiomorpholino)prop-1-yn-1-yl)-2-((R)-1-(methylamino)ethyl)pyridin-3-yl)-1-ethyl-10,10-dimethyl-5,7-dioxo-6^1,6^2,6^3,6^4,6^5,6^6-hexahydro-1^1H-8-oxa-2(4,2)-thiazola-1(5,3)-indola-6(1,3)-pyridazinacycloundecaphane-4-yl)-2,3-dimethylcyclopropane-1-carboxamide] | IC50 (AsPC-1 p-ERK; ASPC1, AsPC-1 cells (KRAS G12D), 3 h incubation, read-out: AsPC-1 p-ERK IC50): 10.6 nM
